Measurements: patent US11013709B2, “Highly purified eicosapentaenoic acid, as free fatty acid, reduces fecal calprotectin levels and prevents clinical relapse in ulcerative colitis patients” (S.L.A. PHARMA AG, priority 2017, dated 2021)

Tests used:
fecal calprotectin (FC) = experiment: Double-blind, randomized, placebo-controlled study in UC patients: fecal calprotectin level (ELISA, Calprest); assay type: in vivo, human; conditions: over a six month period of administering highly purified EPA-FFA
Experimental: The present invention provides for a double-blind, randomized, placebo-controlled study with UC patients with fecal calprotectin level ≥150 μg/g and in stable therapy for at least the 3 previous months. Each subject, receives either 2 grams daily of EPA-FFA (2 dosages of 500 mg sustained-release capsules, twice a day) or placebo (2 dosages of 500 mg sustained-release capsules of capric and caprylic acids, twice daily) for a 6 month period. At baseline, the patients undergo a total colonoscopy. Fecal calprotectin levels, clinical and laboratory assessments are performed at baseline, 3 and 6 months or at the time of clinical relapse, which has been defined as the occurrence of symptoms accompanied by an increase in the partial Mayo score ≥2 and/or requiring a change in therapy. […]
The primary endpoint is the proportion of patients achieving a 100-point reduction (100 μg/g or greater) from baseline in FC level at 6 months. […] A combined endpoint consisting of the number of patients achieving the primary and secondary endpoints is also calculated. […]
A fecal sample from the first bowel movement in the morning is stored in a refrigerator at 2-8° C. for a maximum of 24 h before performing the analysis. Quantification of FC levels is carried out using a quantitative, enzyme-linked immunosorbent assay (Calprest; Eurospital, Trieste, Italy), according to the manufacturers' instructions. […]

[1] = Safety and tolerability in placebo-controlled trial of UC patients; assay type: in vivo, human; conditions: 60 patients with UC treated for 6 months
Experimental: The present invention provides for a double-blind, randomized, placebo-controlled study with UC patients with fecal calprotectin level ≥150 μg/g and in stable therapy for at least the 3 previous months. Each subject, receives either 2 grams daily of EPA-FFA (2 dosages of 500 mg sustained-release capsules, twice a day) or placebo (2 dosages of 500 mg sustained-release capsules of capric and caprylic acids, twice daily) for a 6 month period. At baseline, the patients undergo a total colonoscopy. Fecal calprotectin levels, clinical and laboratory assessments are performed at baseline, 3 and 6 months or at the time of clinical relapse, which has been defined as the occurrence of symptoms accompanied by an increase in the partial Mayo score ≥2 and/or requiring a change in therapy.
Patients who satisfied the inclusion criteria undergo blood tests, including C-reactive protein (CRP) (normal upper limit 5 mg/L) and a total colonoscopy with multiple biopsies at baseline. They are then randomized 1:1 to receive either 2 g daily of EPA-FFA (2×500 mg gastro-resistant sustained-release capsules, twice-daily) or 2 g of placebo (2×500 mg gastro-resistant sustained-release capsules of capric and caprylic acids that are triglycerides of the fractionated plant fatty acids, twice-daily) for a 6-month period. The entire study team are blinded to the treatment assignment.

[2] = cited from earlier work

CC/C=C\C/C=C\C/C=C\C/C=C\C/C=C\CCCC(=O)O [EPA-FFA, eicosapentaenoic acid]
reduction of FC (fecal calprotectin (FC)): at least 100 μg/g
serious adverse events [1]: no serious adverse events
incorporation of EPA into plasma phospholipids and red blood cell membranes ([2]; 2 g daily for 8 weeks, patients with IBD and healthy volunteers): consistently incorporated into plasma phospholipids and red blood cell membranes
metabolic conversion [2]: quickly converted into docosahexaenoic acid via docosapentaenoic acid
